“Also recorded” adds a separate entry of the source.

Assay [1] has as its target T1, alpha-synuclein/Synapsin III interaction (Homo sapiens, UniProt O14994+P37840).
T1 construct: expressed in transfected cells; host or cells: neuronal-differentiated (retinoic acid) human SK-N-SH neuroblastoma cells, transient transfection with Lipofectamine 3000
The assay can be described thus: FLIM-FRET (donor lifetime) of alpha-synuclein/Synapsin III interaction in SK-N-SH cells. Particulars: 10 μM, 15 min after treatment. In kind it is cell-based. How it is done: (§1) The ability of the different compound to stimulate alpha-synuclein/Synapsin III interaction was evaluated by acceptor photobleaching FRET or FLIM in neuronal-like cells. In particular, we used neuronal-differentiated SK—N—SH neuroblastoma cells transiently transfected with red fluorescent protein (RFP)-tagged human wild type alpha-synuclein and green fluorescent protein (GFP)-tagged the human 63 kDa Synapsin III isoform.
The comparison of the lifetimes of the donor alone and in presence of the acceptor allows for precise and concentration-independent measurements of FRET efficiency. Fluorescence lifetime is defined as the average time that a fluorophore spends in the excited state after the absorption of light, prior to returning to the ground state by emitting a photon. Donor fluorescence lifetime is decreased when FRET occurs between the fluorophore pair. The comparison of the lifetimes of the donor alone and in presence of the acceptor allows for precise and concentration-independent measurements of FRET efficiency (Ishikawa-Ankerhold, H. C. et al. Molecules (Basel, Switzerland) 2012, 17, 4047-4132). Human neuroblastoma SK—N—SH cells were grown in complete medium comprising Dulbecco's modified Eagle's medium with 1000 mg glucose/l supplemented with 10% heat-inactivated fetal bovine serum, 100 μg/ml penicillin and 100 μg/ml streptomycin. Cells were maintained at 37° C. under a humidified atmosphere of 5% CO2 and […]. For FRET/FLIM studies, SK—N—SH cells were seeded onto poli-D-lysine-coat 1.7 cm2 glass chamber (15000 cells per well) and were maintained in differentiation medium for ten days by daily adding 10 μM retinoic acid to the medium. […] The time-domain FLIM was measured using a Time-Correlated Single Photon Counting (TCSPC) (PicoQuant) operated with SymPhoTime 64 software (PicoQuant). […] The images of GFP fluorescence generated in ZEN software were stored and processed with SymPhoTime 64. The mean fluorescence intensities within cell body were determined using the ROI tool in SymPhoTime 64. […] The fluorescence lifetime analysis was performed in the SymPhoTime 64 software within the cell body, automatically recognized by the software as ROI 0. Individual photon arrivals were detected using a SPAD detector and events were recorded by a PicoHarp 300 TCSPC module. […] The percentage FLIM-FRET efficiency was calculated as: 100×[1−(lifetime of donor with FRET/lifetime of donor without FRET)]. For lifetime analysis, fifteen cells were recorded for each condition, included GFP alone.

Assay [2] concerns the target T1, alpha-synuclein/Synapsin III interaction. The assay can be described thus: Acceptor photobleaching FRET of alpha-synuclein/Synapsin III interaction in neuronal-differentiated SK-N-SH cells. The note with it: 10 μM, 15 min; for stimulation of alpha-synuclein/Synapsin III interaction (FRET efficiency), in words: vs basal. In kind it is cell-based. How it is done:
as §1
Acceptor photobleaching FRET microscopy allows an accurate evaluation of protein-protein interaction through the measurement of FRET efficiency. This parameter is indicative of the increase of donor fluorescence after complete photobleaching of the acceptor fluorescence, within a FRET pair of fluorophores (where the emission wavelength of a donor falls within the excitation wavelength of an acceptor). Since FRET efficiency is detectable only when the two fluorophores are sufficiently close to ensure that their linked proteins are interacting, the molecular proximity of these latter results strictly dependent on this parameter^36,37. […] Human neuroblastoma SK—N—SH cells were grown in complete medium comprising Dulbecco's modified Eagle's medium with 1000 mg glucose/l supplemented with 10% heat-inactivated fetal bovine serum, 100 μg/ml penicillin and 100 μg/ml streptomycin. Cells were maintained at 37° C. under a humidified atmosphere of 5% CO2 and […]. For FRET studies, SK—N—SH cells were seeded onto poli-D-lysine-coated 13 mm glass coverslips in 24-well plates (15000 cells per coverslip) and were maintained in differentiation medium for ten days by daily adding 10 μM retinoic acid to the medium. […] Fixed cells were analyzed by means of a Zeiss confocal laser microscope LSM 880 (Carl Zeiss) with the laser set on A=488-543. After identifying double positive cells three-to-six regions of interest (ROI) were analyzed for 4 series. Two images of basal condition (Pre-bleaching) were acquired before bleaching the RFP acceptor fluorophore with laser 543 set at 65% power. Then, other two images were acquired after the bleaching (Post-bleaching). The FRET efficiency (intended as the GFP recovery after RFP photobleaching) was measured by using Zen black software (Carl Zeiss). The average intensity of the background (outside the cell) was subtracted from the average intensity of the ROI and all the FRET values resulting from the different ROI were used for statistical analysis.
Human neuroblastoma SK—N—SH cells were grown in complete medium comprising Dulbecco's modified Eagle's medium with 1000 mg glucose/l supplemented with 10% heat-inactivated fetal bovine serum, 100 μg/ml penicillin and 100 μg/ml streptomycin. Cells were maintained at 37° C. under a humidified atmosphere of 5% CO2 and […]. For FRET studies, SK—N—SH cells were seeded onto poli-D-lysine-coated 13 mm glass coverslips in 24-well plates (15000 cells per coverslip) and were maintained in differentiation medium for ten days by daily adding 10 μM retinoic acid to the medium. […] Fixed cells were analyzed by means of a Zeiss confocal laser microscope LSM 880 (Carl Zeiss) with the laser set on λ=488-543. After identifying double positive cells three-to-six regions of interest (ROI) were analyzed for 4 series. Two images of basal condition (Pre-bleaching) were acquired before bleaching the RFP acceptor fluorophore with laser 543 set at 65% power. Then, other two images were acquired after the bleaching (Post-bleaching). The FRET efficiency (intended as the GFP recovery after RFP photobleaching) was measured by using Zen black software (Carl Zeiss). The average intensity of the background (outside the cell) was subtracted from the average intensity of the ROI and all the FRET values resulting from the different ROI were used for statistical analysis.

T1 sequence (O14994 whole entry, one chain of several): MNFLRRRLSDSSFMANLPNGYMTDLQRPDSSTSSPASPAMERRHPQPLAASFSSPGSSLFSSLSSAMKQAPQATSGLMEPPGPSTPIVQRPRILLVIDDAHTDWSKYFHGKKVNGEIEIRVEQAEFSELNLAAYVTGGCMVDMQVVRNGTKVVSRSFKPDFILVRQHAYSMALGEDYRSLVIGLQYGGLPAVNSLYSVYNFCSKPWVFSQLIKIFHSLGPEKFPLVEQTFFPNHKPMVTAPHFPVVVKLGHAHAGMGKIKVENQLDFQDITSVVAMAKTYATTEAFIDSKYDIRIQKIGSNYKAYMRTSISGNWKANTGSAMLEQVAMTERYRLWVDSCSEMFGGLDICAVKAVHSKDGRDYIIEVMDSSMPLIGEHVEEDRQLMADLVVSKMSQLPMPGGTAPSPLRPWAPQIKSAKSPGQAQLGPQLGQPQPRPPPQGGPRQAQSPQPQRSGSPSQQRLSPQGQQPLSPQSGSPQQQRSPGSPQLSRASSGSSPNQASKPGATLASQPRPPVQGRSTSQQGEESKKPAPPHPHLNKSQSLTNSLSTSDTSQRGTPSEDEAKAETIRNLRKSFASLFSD

Consider `COC(=O)[C@H](c1ccc(C)cc1)C1CCCCN1.Cl` (stereo partly drawn) [I-erythro], for which the “stimulation of alpha-synuclein/Synapsin III interaction (FLIM), in words” value in assay [1] is on record as “did not stimulate alpha-synuclein/Synapsin III interaction”. In addition, the “stimulation of alpha-synuclein/Synapsin III interaction (FRET efficiency), in words” value in assay [2] is given as “not able to stimulate alpha-synuclein/Synapsin III interaction; also recorded: No significant increase”.

On to `COC(=O)[C@@H](c1ccc(C)cc1)C1CCCCN1.Cl` (stereo partly drawn) [I-threo, threo methyl 2-(piperidin-2-yl)-2-(p-tolyl)acetate hydrochloride], for which, in assay [1], the “% decrease of tau amplitude (donor lifetime) vs MPH treated cells” value was -8.4%; the “% decrease of tau amplitude (donor lifetime) vs untreated cells” value is listed as -11.95%; the “stimulation of alpha-synuclein/Synapsin III interaction (FLIM), in words” value is “able to promote alpha-synuclein/synapsin III interaction”. Also, in assay [2] (neuronally differentiated SK-N-SH cells), the “% FRET efficiency change vs control untreated cells” value is “+8.8%”. For the same compound, the “% FRET efficiency change vs MPH-treated cells” value in assay [2] (vs MPH 10 μM) is on record as “+5.5%”. The “% FRET efficiency change vs VI-threo-treated cells” value in assay [2] (vs VI-threo 10 μM) is listed as “+5.2%”. For the same compound, the “stimulation of alpha-synuclein/Synapsin III interaction (FRET efficiency), in words” value in assay [2] is on record as “significant increase in the FRET efficiency”.
